The source of these data is a melting point compilation (Tetko et al.; mined from patent text by program, amines drawn as free bases though some values may be those of a salt).

Bounds are passed on as bounds.

Usually melting point stands for the temperature of the solid-liquid transition. For the compound `COc1ccc2c(c1OC)CC=C2c1c[nH]cn1`, the melting point came to 150 °C. In the case of `O=C(CCCCN1CCC(Cc2ccccc2)CC1)c1ccc2c(c1)Cc1cc(C(=O)CCCCN3CCC(Cc4ccccc4)CC3)ccc1-2` it was 147 to 149 °C. In the case of `CN1CCN(C)CCN2CCOCCOCCN(CC1)CCN(C)CCN(C)CC2` it was 32 to 33 °C; in that of `COc1cccc(CCNC(=O)c2nc(N)sc2-c2ccncc2)c1OC`, 167 to 168 °C; in that of `Cc1ccc(-c2cc3cc(Cl)c(Cl)cc3o2)cc1`, 129 to 130 °C. As for `CCCCCCCCCCCCC1=C(Cl)C(=O)c2ccccc2C1=O`, the melting point was 80 to 82 °C. In the case of `COc1ccc2[nH]c(C)c(CCNC(=O)C3CC3)c2c1` it was 102 to 103 °C. As for `CCCc1ccnc2c(=O)[nH]c(-c3cc(S(=O)(=O)N4CCC(C(=O)OCC)CC4)ccc3OCC)nc12`, the figure is 204 to 205 °C; as for `Cc1cc(O)ccc1Nc1ccccc1C(=O)O`, 209 to 211 °C. Compound `CN(Cc1cc(C(F)(F)F)cc(C(F)(F)F)c1)C(=O)c1cnc2ccccc2c1-c1ccccc1` came in with a melting point of 96 to 97 °C. As for `CCOC(=O)C(C)(C)c1nc2ccc(Cl)nn2c1Cl`, the figure is 66 to 67 °C. In the case of `CC(=O)Oc1ccc(NCc2c(F)c(F)c(C(F)(F)F)c(F)c2F)cc1C(=O)O` it was 185 to 187 °C; in that of `COc1cc2cc3c(Nc4ccc(Sc5nccn5C)c(Cl)c4)c(C#N)cnc3cc2cc1OCCCl`, 275 to 280 °C.

For the compound `BrC(Br)=Cc1ccccc1NCc1ccccc1`, the melting point was in the range of 93 to 95 °C. With `Cc1c(C)c(N2CCN(c3ccc(Br)cc3)CC2)c(C)c2c1OC(C)C2` (stereo not given), the melting point is 202 to 204 °C. As for `CCOC(=O)C(=CNc1ccc(Br)cc1)C(=O)OCC`, the figure is 100 to 102 °C; as for `Fc1ccc(OCCCCN2CCC(NC3=Nc4ccccc4CS3)CC2)cc1`, 133 °C. As for `CC(C)n1nc(-c2sc(C(=O)NC3CCCCC3)nc2-c2ccccc2)ccc1=O`, the figure is 225 to 226 °C; as for `CC(=O)Oc1cc2nc[nH]c(=O)c2cc1OCc1ccccc1`, 231 to 233 °C; as for `Cc1nc(C=O)c2n1-c1ccc(Cl)cc1C(c1ccccc1)=NC2`, 218 to 220 °C.

On to `COc1ccc(S(=O)(=O)c2sc(S(N)(=O)=O)cc2C)cc1`, for which the melting point was in the range of 140 to 143 °C. In the case of `O=C1c2c(O)ccc(O)c2C(=O)c2c(NCCN3CCOC34CCCCC4)ccc(NCCN3CCOC34CCCCC4)c21` it was 218 to 225 °C; in that of `CCOC(=O)c1ccc(Cn2c(C)nc3ccc(C(=O)NS(=O)(=O)c4ccccc4)nc32)c(Cl)c1`, 196 to 197 °C; in that of `CC#CCOc1ccc(SC(C(=O)NO)c2ccc(-c3cccs3)cc2)cc1` (stereo not given), 182 °C. `CC(C)[C@H](OCc1ccccc1F)[C@H]1[C@H]([N+](=O)[O-])[C@H](c2ccccc2)N[C@@H]1C(=O)NCC(=O)O` yielded a melting point of 72 to 73 °C. As for `N#Cc1c[nH]cc1-c1ccccc1`, the figure is 123 to 125 °C; as for `COc1ccc(-c2cc(F)c(F)cc2-c2ccc(S(N)(=O)=O)cc2)cc1C`, 120 to 122 °C; as for `CCCCC1(O)CCN(CC23CC(c4ccccc42)c2ccccc23)CC1`, 194 to 196 °C. Consider `Cc1ccc(OCC2=NCCN2)c(C)c1NS(C)(=O)=O`, for which the melting point is 216 to 217 °C. As for `CC(=O)NCC1CN(c2ccc3c(c2)OCC2CN(C(=O)c4cc5ccccc5[nH]4)CCN32)C(=O)O1` (stereo not given), the figure is more than 250 °C; as for `C#Cc1cnc(OCCC)c(-c2nc3c(CC)nn(CCN4CCOCC4)c3c(=O)[nH]2)c1`, 137 to 139 °C. With `CCOc1ccc(-c2nc(-c3cc(CCO)c(O)c(C(=O)OC)c3)cs2)cc1OCC`, the melting point is 113 to 114 °C. As for `COC(=O)Cc1cc(NC(=O)OC(C)(C)C)c([N+](=O)[O-])cc1C#Cc1ccccc1`, the figure is 134 °C; as for `CCN(CC)C(=O)C1=C(C(=O)Nc2ccc(Cl)cc2F)CCCC1`, 105 to 106 °C. As for `C=CCn1nnc2cc3c(=O)n(C(C)Cn4ncnn4)nnc3cc2c1=O` (stereo not given), the figure is 159 to 161 °C; as for `COC(=O)CCC(=O)c1ccc(C)cc1OCC(O)CNC(C)(C)C` (stereo not given), 82 to 84.5 °C. Consider `O=C1CC(O)CC(/C=C/c2ccccc2-c2ccccc2)O1` (stereo not given), for which the melting point was in the range of 89 to 91 °C.

In the case of `CCCCCCc1ccc(C#Cc2ccc(C=O)cc2)cc1`, the melting point was 67 °C. In the case of `COc1cc(C#N)c(N=C(C)N2CCc3cc(OC)c(OCc4ccccc4)cc3C2)cc1OC`, the melting point is 72 to 73 °C. As for `COc1ccc2c(c1)CCC1C2CCC2(C)C(=O)CCC12` (stereo not given), the figure is 128 to 131 °C.

Consider `COc1ccc2cccc(CCNC(C)=O)c2c1`, for which the melting point came to 108 °C. `Cc1c(C)c2ccc(OCCCN3CCC(NC(=O)c4ccccc4)CC3)cc2oc1=O`: the melting point fell in the range of 201 to 203 °C.

`Nc1nnc(-c2ccc(F)c(F)c2Nc2ccc(Br)cc2F)o1`: the melting point turned out to be 245 °C. In the case of `NC(=O)c1cn2c(nc1=O)CCCCC2` it was 219 °C. In the case of `Cc1cccc(C(O)c2ocnc2C)c1` (stereo not given) it was 76.5 to 77.5 °C; in that of `O=C(NCc1ccc(Cl)cc1)c1cnc2sc(CO)cc2c1O`, 205 to 210 °C; in that of `CN(C)c1cccc(-c2cnc3[nH]cc(C(=O)C(C)(C)C)c3n2)c1`, 223 to 228 °C. As for `CCOC(=O)C1=COc2ccc(O)cc2O1`, the figure is 160 °C. Compound `C[Si](C)(C)CCOCn1c(-c2cnn(-c3c(Cl)cc(C(F)(F)F)cc3Cl)n2)nc([N+](=O)[O-])c1Br` returned a melting point of 126 to 128 °C. `O=C(O)C1Oc2cc(Cl)c(S(=O)(=O)c3ccc4c(c3)OCO4)cc2O1` (stereo not given): the melting point fell in the range of 182 to 184 °C. In the case of `COc1ccc(OCC(O)CN2CCC(C3Oc4ccccc4Cn4cccc43)CC2)cc1` (stereo not given) it was 95 to 120 °C; in that of `CC(C)(C)OC(=O)N1CC=C(c2c[nH]c3ccc([N+](=O)[O-])cc23)CC1`, 210 to 212 °C; in that of `CNC(=O)C1CN(CC(=O)Nc2c(Cl)cc(C(C)=O)cc2Cl)CCN1CCCCN(c1ccc(F)cc1)c1ccc(F)cc1` (stereo not given), 85 °C.

Compound `CN1CCC(O)(c2cccc(Cl)c2F)C1` (single isomer, unassigned; (+)) gave a melting point of 123 to 125 °C.

In the case of `COc1nc(C)nc(NC(=O)NS(=O)(=O)c2cccc3c2OS(=O)(=O)C(C)=C3)n1`, the melting point was 203 to 205 °C.

The compound `CCc1cccc(CC)c1NC(=O)NCC1(c2ccccc2)CCCC1` came in with a melting point of 165 to 167 °C.

`COc1cc2c(cc1OC)C(C(c1ccccc1)N1CCCCC1)OC2=O` (stereo not given) registered a melting point of 213 to 214 °C. For `Cc1ccc(Oc2ccc([N+](=O)[O-])cn2)cc1`, the melting point lay within 80 to 82 °C. In the case of `COC(=O)Cc1cccc(NC(=O)NCC(=O)N2[C@@H](c3ccccc3)SC[C@H]2C(=O)OC(C)(C)C)c1` it was 69 °C; in that of `O=C1N=C(NN2CCOCC2)SC1=Cc1cccc(-c2cc(F)c(O)c(C34CC5CC(CC(C5)C3)C4)c2)c1`, 304 to 309 °C. Compound `CCOC(=O)N1CCc2c(cnc3nc(/C=C4/C(=O)N5C(C(=O)O)=CS[C@H]45)nn23)C1` displayed a melting point of more than 250 °C. Compound `COc1ccc(N2CC(=O)N(C)C(=O)N2)cc1` displayed a melting point of 179 to 181 °C. In the case of `COc1ccc(CN(CCN(C)CCCCNC(=O)NCCCOc2cccc(CN3CCCCC3)c2)c2ccccn2)cc1` it was 68 to 72 °C; in that of `CC(=O)N(N=Cc1c(Cl)cccc1Cl)c1nncn1N(C)C(C)=O`, 167 to 169 °C. As for `COc1ccccc1COC(=O)c1ncn2c1[C@@H]1CCCN1C(=O)c1c(Cl)cccc1-2`, the figure is 178 to 179 °C; as for `N#Cc1ccc(NC(=O)c2cc(-c3ccc(F)cc3F)ccc2O)cc1`, 189 to 190 °C; as for `CCC(C)COc1ccc(-c2ccc(O)c(Br)c2)cc1` (stereo not given), 49.4 °C. As for `CC1(C)CC1C(=O)NC(=CCCCCCBr)C(=O)O` (stereo not given), the figure is 151 to 153 °C; as for `O=C(O)c1c(Oc2ccccc2)cccc1Oc1ccccc1`, 164 to 165 °C; as for `CC(=O)Nc1ccc2c(c1)/C(=N\NC(N)=O)C(=O)N2CCN(C(C)C)C(C)C`, 135 to 137 °C. `CC(C)(CO)CCCCC(CCCCC(C)(C)CO)C(C)(C)O` showed a melting point of 72 to 74 °C. As to `FC(F)(F)c1ccc(CN2CC=C(/C=C/c3ccccc3)CC2)cc1`, the melting point is 125 to 127 °C. In the case of `CC1COc2cc(-c3ccco3)ccc2C1=NO` (stereo not given) it was 175 to 177 °C; in that of `COC(=O)c1cn(C2CC2)c2c(OC)c(N3CCC(CN)(CF)C3)c(F)cc2c1=O` (stereo not given), 143 to 145 °C; in that of `CC(C)(C)OC(=O)N1C[C@@H]2CC1CN2c1cncc(Br)c1`, 149 °C. As to `COC(=O)C(Cc1ccccc1)Cc1ccc(OCCn2c(=O)sc3cc(C(=O)c4ccccc4)ccc32)cc1` (stereo not given), the melting point lay within 65 to 67 °C.

Consider `O=C1CCN(C(=O)C(F)(F)F)c2ccccc2CN1`, for which the melting point was in the range of 218 to 219 °C. In the case of `CCOC(=O)c1cn(-c2cccc(Oc3ccc(Cl)cc3)c2)cn1` it was 112 to 113 °C; in that of `CCN(CC)CCOc1ccc(Nc2ncc3c(n2)N(CC)C(=O)N(c2c(Cl)cccc2Cl)C3)cc1`, 85 °C. In the case of `O=S(=O)(c1ccccc1)C1C2CCC(C2)C1Br` (stereo not given) it was 108 to 110 °C; in that of `N#CCCNC(=O)c1cccc(-c2ncc3ccn(Cc4ccc(Cl)cc4Cl)c3n2)c1`, 198 to 199 °C. As for `O=c1n(-c2cccc3ccccc23)c(=O)n(CCO)n1CCO`, the figure is 211 to 212 °C; as for `COC(=O)c1ccoc1CCNC(=O)C[C@H]1O[C@H](c2cccc(OC)c2OC)c2cc(Cl)ccc2N(CC(C)(C)CO)C1=O`, 81 to 83 °C; as for `Cc1cc(C2(c3ccc(OC(F)F)cc3)N=C(N)N(C)C2=O)ccc1F` (stereo not given), 70 °C. `COc1ccc([C@@H]2Sc3ccccc3N(CCN(C)C)C(=O)[C@@H]2OC(=O)Nc2ccccc2)cc1` (relative stereo) displayed a melting point of 106 to 108 °C.
